Tests used:
[1] = tested on: Femur was isolated from 10- to 11-day chick embryo; details: 100 µM
Procedure: Inhibitory effect of various compounds on bone resorption was tested according to the method described in "Advanced Tissue Cultures For In Vitro Assay And Production" (pages 111-114, edited by Isao Yamane & Hiroyoshi Endo, Published by SOFT SCIENCE, Inc. Tokyo).
Femur was isolated from 10- to 11-day chick embryo. After cleaned from adherent soft tissues, the preparation was precultivated in 1 ml of BGJb-HW2 culture medium containing benzofuro[3,2-c]quinoline derivatives of the present invention at 37° C for 24 hours using the roller-tube method. Tested compounds were dissolved in dimethylsulfoxide at a concentration of 0.1 M and the solution was diluted with the culture medium to make a final concentration of 10-^4 M of those compounds. In the case of control group, the same volume of dimethylsulfoxide was added.
On the next day, the precultivated femur was further cultivated for 2 hours at 37° C in 1 ml of fresh culture medium containing 1 µCi/ml of ^45CaCl2 to label the bone mineral with ^45Ca. Then, the cultivated bone was rinsed with a phosphate-buffered saline warmed at 37' C to remove ^45Ca adhered to the bone. ^45Ca-Labelled bone was again cultivated using the roller-tube method (10 revolutions/hr), and the radioactivity of ^45Ca in an aliquot of the culture medium was determined by liquid scintillation counter at a point of 12, 24, 48 and 72 hours, respectively. The culture medium was freshed at each determination of the radioactivity. After completion of the cultivation, the bone was immersed in 1 ml of 1 N HCI for 24 hours to elute all calcium in the bone, and the remaining radioactivity in the bone was determined.
From the obtained data, the rate of remaining radioactivity of the bone to the initial radioactivity of the bone was measured at each observation. Then the eluting rate of bone mineral by osteoclasts was obtained by linear-regression of decay curve for the rate of remaining radioactivity in the bone after 24 to 72 hours of the cultivation, and turnover rate of calcium in the bone mineral accumulated in the cultivated bone was estimated as biological half-life (T1/2).
The potency of the inhibition of presented compounds was calculated by the following equation using T1/2.

[2] = tested on: femur of rats loaded low calcium diets; test: Effect on calcium and phosphorus contents in femur of rats loaded low calcium diets; format: in vivo, male Wistar rats; details: 300 mg/kg orally once a day for 2 weeks, mean±standard error of the mean of 10 observations
Procedure: Twenty male Wistar rats of 3 weeks age were divided into 2 groups. All animals were raised with low calcium diets. Test compound, 3,9-dihydroxy-5H-benzofuro [3,2-c]quinolin-6-one (compound 2) suspended in 0.5% sodium carboxymethyl cellulose solution (CMC) was orally administered to 1 group at a dose of 300 mg/kg once a day for 2 weeks. Another group recieved the same volume of CMC. After completion of the experiment, calcium and phosphorus contents in the femur were determined.
The results were shown in the following table as mean±standard error of the mean of 10 observations.

[3] = tested on: Femur was isolated from 9-day chick embryo; test: Stimulatory effect on ossification (femur organ culture, calcium content); format: cell-based; details: 10-^5 M; cultivated for 6 days; eluted calcium versus paired control femur; mean value of 6 observations
Procedure: Stimulatory effect of various compounds on ossification was tested according to the method described in "Advanced Tissue Cultures For In Vitro Assay And Production" (pages 111-114, edited by Isao Yamane & Hiroyoshi Endo, Published by SOFT SCIENCE, Inc. Tokyo).
Femur was isolated from 9-day chick embryo. After cleaned from adherent soft tissues, one femur of a paired femur was used for a test of compound of the present invention, and the other femur was used as control group. One preparation was placed directly on the inner surface of a glass roller-tube, and 2 ml of BGJb-HW2 culture medium was added to each tube. Each preparation was cultivated at 37° C by the roller-tube method (10 revolutions/hr) for 6 days. During the cultivation, femur length was measured, and the culture medium was freshed every other day. Tested compounds were dissolved in dimethylsulfoxide at a concentration of 0.01 M and the solution was diluted by the culture medium to make a final concentraiton of 10-^5 M of those compounds. In the case of control group, the same volume of dimethylsulfoxide was added.
After completion of the cultivation, the bone was immersed in 1 N HCI for 24 hours to elute all calcium in the bone, and the eluted calcium was determined by chelating method using orthocresolphthalein.
The potency of the stimulatory effect on ossification of presented compounds was calculated by the following equation. [formula]
The results are shown in the following table as the mean value of 6 observations.

How did the “Inhibitory potency on bone resorption” value [1] turn out when O=c1[nH]c2cc(O)ccc2c2oc3ccccc3c12 [Compound 1, 3-Hydroxy-5H-benzofuro[3,2-c]quinolin-6-one] was run?
The value was 1.24.

For O=c1[nH]c2cc(O)ccc2c2oc3cc(O)ccc3c12 [Compound 2, 3,9-Dihydroxy-5H-benzofuro[3,2-c]quinolin-6-one], which “Amount of calcium (mg/femur)” value [2] is on record?
Its value is 8.1±0.50 mg/femur.

And the “Amount of phosphorus (mg/femur)” value [2]?
The value was 5.1±0.26 mg/femur.

What about the “Inhibitory potency on bone resorption” value [1] of the same compound?
The value was 1.97.

What about the “Stimulatory potency on ossification” value [3] of the same compound?
Its value is 1.11.

How did the “Inhibitory potency on bone resorption” value [1] turn out when O=c1[nH]c2cc(O)ccc2c2oc3ccc(O)cc3c12 [Compound 3, 3,8-Dihydroxy-5H-benzofuro[3,2-c]quinolin-6-one] was run?
The value was 2.52.

Which “Inhibitory potency on bone resorption” value [1] does the source give for CC(C)Oc1ccc2c(c1)[nH]c(=O)c1c3ccccc3oc21 [Compound 4, 3-Isopropoxy-5H-benzofuro[3,2-c]quinolin-6-one] here?
The value was 1.16.

O=c1[nH]c2cc(OCCCO)ccc2c2oc3ccccc3c12 [Compound 5, 3-(3-Hydroxypropoxy)-5H-benzofuro[3,2-c]quinolin-6-one] was tested. Which “Inhibitory potency on bone resorption” value [1] did it give?
The value was 1.26.

Which “Inhibitory potency on bone resorption” value [1] does the source give for CCOC(=O)C(C)Oc1ccc2c(c1)[nH]c(=O)c1c3ccccc3oc21 (stereo not drawn) [Compound 6, 3-(1-Ethoxycarbonylethoxy)-5H-benzofuro[3,2-c]quinolin-6-one] here?
Its value is 1.10.

Which “Inhibitory potency on bone resorption” value [1] does the source give for CC(Oc1ccc2c(c1)[nH]c(=O)c1c3ccccc3oc21)C(=O)O (stereo not drawn) [Compound 7, 3-(1-Carboxyethoxy)-5H-benzofuro[3,2-c]quinolin-6-one] here?
The value was 1.10.

How did the “Inhibitory potency on bone resorption” value [1] turn out when CC(C)Oc1ccc2c(c1)[nH]c(=O)c1c3ccc(OC(C)C)cc3oc21 [Compound 8, 3,9-Diisopropoxy-5H-benzofuro[3,2-c]quinolin-6-one] was run?
Its value is 1.24.

Which “Inhibitory potency on bone resorption” value [1] does the source give for CC(C)Oc1ccc2c(c1)[nH]c(=O)c1c3ccc(O)cc3oc21 [Compound 9, 9-Hydroxy-3-isopropoxy-5H-benzofuro[3,2-c]quinolin-6-one] here?
Its value is 2.89.

And the “Stimulatory potency on ossification” value [3]?
Its value is 1.08.

For O=c1[nH]c2cc(OCCCO)ccc2c2oc3cc(OCCCO)ccc3c12 [Compound 10, 3,9-Bis(3-hydroxypropoxy)-5H-benzofuro[3,2-c]quinolin-6-one], which “Inhibitory potency on bone resorption” value [1] is on record?
The value was 1.40.

What does the source list for O=c1[nH]c2cc(OCCCO)ccc2c2oc3cc(O)ccc3c12 [Compound 11, 9-Hydroxy-3-(3-hydroxypropoxy)-5H-benzofuro[3,2-c]quinolin-6-one]?
Inhibitory potency on bone resorption [1]: 2.89; Stimulatory potency on ossification [3]: 1.14

CCOC(=O)C(C)Oc1ccc2c(c1)[nH]c(=O)c1c3ccc(OC(C)C(=O)OCC)cc3oc21 (stereo not drawn) [Compound 12, 3,9-Bis(1-ethoxycarbonylethoxy)-5H-benzofuro[3,2-c]quinolin-6-one] was tested. Which “Inhibitory potency on bone resorption” value [1] did it give?
Its value is 1.16.

How did the “Inhibitory potency on bone resorption” value [1] turn out when COc1ccc2c(c1)[nH]c(=O)c1c3ccc(OC)cc3oc21 [Compound 13, 3,9-Dimethoxy-5H-benzofuro[3,2-c]quinolin-6-one] was run?
Its value is 1.04.

Source: patent publication EP0293146A1, “Benzofuro [3,2-c] quinoline compounds” (Kissei Pharmaceutical Co Ltd, priority 1987, dated 1988)
